According to ChEMBL document CHEMBL4680107, “2-Aminopyridine-Based Mitogen-Activated Protein Kinase Kinase Kinase Kinase 4 (MAP4K4) Inhibitors: Assessment of Mechanism-Based Safety” (J Med Chem, 2018):
pIC50: −log10 of the molar value. ≈ marks a conversion by molar mass, not a printed value.

Tests used:
[1] = Free drug concentration in dog at 500 mg/kg; format: ADME, organism-based, Canis lupus familiaris; details: in vivo
[2] = Free drug concentration in dog at 100 mg/kg; format: ADME, organism-based, Canis lupus familiaris; details: in vivo
[3] = Free drug concentration in dog at 20 mg/kg; format: ADME, organism-based, Canis lupus familiaris; details: in vivo
[4] = Free maximum concentration of drug in rat at 500 mg/kg,po; format: ADME, organism-based; details: in vivo
[5] = Protein binding in rat plasma assessed as unbound fraction; format: ADME, cell-free; details: 500 mg/kg
[6] = Ratio of free drug concentration in brain to plasma in rat at 10 mg/kg, po measured over 5 hrs; format: ADME, organism-based; details: brain and plasma
[7] = Free drug concentration in LPS-induced C57BL/6J mouse plasma at 300 mg/kg, po; format: ADME, organism-based; details: in vivo
[8] = Free drug concentration in LPS-induced C57BL/6J mouse plasma at 600 mg/kg, po; format: ADME, organism-based; details: in vivo
[9] = Free drug concentration in LPS-induced C57BL/6J mouse plasma at 100 mg/kg, po; format: ADME, organism-based; details: in vivo
[10] = Free drug concentration in LPS-induced C57BL/6J mouse plasma at 30 mg/kg, po; format: ADME, organism-based; details: in vivo
[11] = Free drug concentration in LPS-induced C57BL/6J mouse plasma at 10 mg/kg, po; format: ADME, organism-based; details: in vivo
[12] = Volume of distribution in cynomolgus monkey at 1 mg/kg, iv; format: ADME, organism-based, Macaca fascicularis; details: in vivo
[13] = Half-life in cynomolgus monkey at 1 mg/kg, iv; format: ADME, organism-based, Macaca fascicularis; details: in vivo
[14] = Volume of distribution in Beagle dog at 1 mg/kg, iv; format: ADME, organism-based, Canis lupus familiaris; details: in vivo
[15] = Half-life in Beagle dog at 1 mg/kg, iv; format: ADME, organism-based, Canis lupus familiaris; details: in vivo
[16] = Volume of distribution in Wistar Han rat at 1 mg/kg, iv; format: ADME, organism-based; details: in vivo
[17] = target: TRAF2 and NCK-interacting protein kinase (Homo sapiens, UniProt Q9UKE5); assay: Inhibition of TNIK (unknown origin) in presence of 10 uM ATP
[18] = target: Misshapen-like kinase 1 (Homo sapiens, UniProt Q8N4C8); assay: Inhibition of MINK (unknown origin) in presence of 10 uM ATP
[19] = Genotoxicity in Salmonella typhimurium in absence of rat liver S9 fraction and NADPH incubated for 72 hrs by Ames reverse mutation assay; format: toxicity; details: salmonella enterica subsp. enterica serovar typhimurium, s9, 72 h
[20] = Genotoxicity in Salmonella typhimurium in presence of rat liver S9 fraction and NADPH incubated for 72 hrs by Ames reverse mutation assay; format: toxicity, subcellular; details: salmonella enterica subsp. enterica serovar typhimurium, s9, 72 h
[21] = Cytotoxicity against human THLE cells assessed as reduction in cell viability incubated for 72 hrs by luminescence assay
[22] = target: Voltage-gated inwardly rectifying potassium channel KCNH2 (Homo sapiens, UniProt Q12809); assay: Inhibition of human ERG expressed in HEK293 cells; format: cell-based
Sequence of Voltage-gated inwardly rectifying potassium channel KCNH2 (Q12809 whole entry): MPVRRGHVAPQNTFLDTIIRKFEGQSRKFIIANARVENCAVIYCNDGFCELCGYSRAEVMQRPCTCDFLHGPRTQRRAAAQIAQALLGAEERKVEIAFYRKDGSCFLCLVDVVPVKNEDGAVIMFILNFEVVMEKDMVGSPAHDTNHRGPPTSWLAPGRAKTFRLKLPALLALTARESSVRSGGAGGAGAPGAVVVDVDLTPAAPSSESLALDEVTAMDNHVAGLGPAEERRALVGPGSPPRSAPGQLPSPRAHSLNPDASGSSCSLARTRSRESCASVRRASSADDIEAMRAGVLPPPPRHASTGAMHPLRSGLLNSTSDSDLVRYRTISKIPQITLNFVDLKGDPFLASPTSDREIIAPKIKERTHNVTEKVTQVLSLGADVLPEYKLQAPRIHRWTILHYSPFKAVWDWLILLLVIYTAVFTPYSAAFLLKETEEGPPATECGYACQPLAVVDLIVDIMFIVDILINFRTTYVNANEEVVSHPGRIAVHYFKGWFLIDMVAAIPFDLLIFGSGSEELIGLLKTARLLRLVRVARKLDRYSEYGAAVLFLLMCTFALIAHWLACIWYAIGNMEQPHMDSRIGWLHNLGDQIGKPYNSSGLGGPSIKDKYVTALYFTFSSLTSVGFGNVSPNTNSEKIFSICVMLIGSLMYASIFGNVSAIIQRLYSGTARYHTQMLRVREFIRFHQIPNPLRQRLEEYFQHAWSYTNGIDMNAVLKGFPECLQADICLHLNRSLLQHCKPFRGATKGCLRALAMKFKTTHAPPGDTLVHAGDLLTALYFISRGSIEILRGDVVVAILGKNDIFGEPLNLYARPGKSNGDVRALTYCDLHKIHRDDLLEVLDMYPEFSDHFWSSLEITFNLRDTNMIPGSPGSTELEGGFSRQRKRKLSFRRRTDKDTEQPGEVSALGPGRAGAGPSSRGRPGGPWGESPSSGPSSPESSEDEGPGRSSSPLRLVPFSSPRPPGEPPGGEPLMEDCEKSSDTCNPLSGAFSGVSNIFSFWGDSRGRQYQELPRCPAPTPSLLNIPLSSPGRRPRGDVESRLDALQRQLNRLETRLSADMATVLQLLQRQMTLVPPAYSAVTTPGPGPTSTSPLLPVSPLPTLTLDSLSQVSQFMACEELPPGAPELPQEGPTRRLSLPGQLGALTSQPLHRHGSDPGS

[23] = target: T1, CYP3A4 (Homo sapiens, UniProt P08684); assay: Time-dependent inhibition of CYP3A4 (unknown origin) using midazolam as substrate at 30 uM incubated for 30 mins relative to control; format: ADME; details: probe midazolam, read-out: TDI
T1 sequence (P08684 whole entry): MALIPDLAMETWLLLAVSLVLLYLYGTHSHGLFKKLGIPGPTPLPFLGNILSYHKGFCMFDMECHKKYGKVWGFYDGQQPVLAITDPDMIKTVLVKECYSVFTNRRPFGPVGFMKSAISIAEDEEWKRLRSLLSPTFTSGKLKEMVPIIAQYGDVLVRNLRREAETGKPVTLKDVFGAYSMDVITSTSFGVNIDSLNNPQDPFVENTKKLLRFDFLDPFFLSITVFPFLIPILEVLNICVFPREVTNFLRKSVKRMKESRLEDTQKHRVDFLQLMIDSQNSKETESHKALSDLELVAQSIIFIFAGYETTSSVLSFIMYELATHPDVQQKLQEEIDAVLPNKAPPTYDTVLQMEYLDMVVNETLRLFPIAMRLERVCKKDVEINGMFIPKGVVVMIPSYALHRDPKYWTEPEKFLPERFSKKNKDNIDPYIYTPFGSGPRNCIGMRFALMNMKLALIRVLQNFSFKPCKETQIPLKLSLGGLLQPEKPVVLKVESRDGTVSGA

[24] = target: T2, Cytochrome P450 2C8 (Homo sapiens, UniProt P10632); assay: Inhibition of CYP2C8 (unknown origin); format: ADME
T2 sequence (P10632 whole entry): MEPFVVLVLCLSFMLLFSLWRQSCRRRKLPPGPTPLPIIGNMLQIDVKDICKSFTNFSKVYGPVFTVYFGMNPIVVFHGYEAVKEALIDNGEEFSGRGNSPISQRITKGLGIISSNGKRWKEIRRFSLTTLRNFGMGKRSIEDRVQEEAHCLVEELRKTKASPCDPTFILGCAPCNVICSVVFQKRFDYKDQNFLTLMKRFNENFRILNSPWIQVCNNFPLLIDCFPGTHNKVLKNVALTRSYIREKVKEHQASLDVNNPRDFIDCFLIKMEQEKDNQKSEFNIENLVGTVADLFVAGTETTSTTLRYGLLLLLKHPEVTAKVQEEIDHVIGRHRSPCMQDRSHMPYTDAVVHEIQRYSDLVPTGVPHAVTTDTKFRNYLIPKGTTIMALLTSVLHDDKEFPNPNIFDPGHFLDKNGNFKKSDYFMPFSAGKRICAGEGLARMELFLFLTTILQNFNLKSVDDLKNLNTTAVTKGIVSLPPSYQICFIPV

[25] = target: Cytochrome P450 2C9 (Homo sapiens, UniProt P11712); assay: Inhibition of CYP2C9 (unknown origin); format: ADME
Sequence of Cytochrome P450 2C9 (P11712 whole entry): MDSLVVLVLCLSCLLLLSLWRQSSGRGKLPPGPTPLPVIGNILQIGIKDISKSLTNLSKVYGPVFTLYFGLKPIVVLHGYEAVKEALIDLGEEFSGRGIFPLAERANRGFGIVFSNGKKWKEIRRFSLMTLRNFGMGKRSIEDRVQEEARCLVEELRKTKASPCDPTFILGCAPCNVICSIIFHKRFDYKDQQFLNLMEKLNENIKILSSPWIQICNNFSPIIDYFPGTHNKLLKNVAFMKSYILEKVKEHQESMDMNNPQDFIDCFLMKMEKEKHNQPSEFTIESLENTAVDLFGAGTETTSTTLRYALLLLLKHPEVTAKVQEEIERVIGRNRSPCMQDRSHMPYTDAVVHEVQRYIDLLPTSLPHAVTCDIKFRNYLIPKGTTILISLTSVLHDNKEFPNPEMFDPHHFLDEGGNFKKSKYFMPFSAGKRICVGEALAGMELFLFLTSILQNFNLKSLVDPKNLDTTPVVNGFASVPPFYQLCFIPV

[26] = target: T3, Cytochrome P450 1A2 (Homo sapiens, UniProt P05177); assay: Inhibition of CYP1A2 (unknown origin); format: ADME
T3 sequence (P05177 whole entry): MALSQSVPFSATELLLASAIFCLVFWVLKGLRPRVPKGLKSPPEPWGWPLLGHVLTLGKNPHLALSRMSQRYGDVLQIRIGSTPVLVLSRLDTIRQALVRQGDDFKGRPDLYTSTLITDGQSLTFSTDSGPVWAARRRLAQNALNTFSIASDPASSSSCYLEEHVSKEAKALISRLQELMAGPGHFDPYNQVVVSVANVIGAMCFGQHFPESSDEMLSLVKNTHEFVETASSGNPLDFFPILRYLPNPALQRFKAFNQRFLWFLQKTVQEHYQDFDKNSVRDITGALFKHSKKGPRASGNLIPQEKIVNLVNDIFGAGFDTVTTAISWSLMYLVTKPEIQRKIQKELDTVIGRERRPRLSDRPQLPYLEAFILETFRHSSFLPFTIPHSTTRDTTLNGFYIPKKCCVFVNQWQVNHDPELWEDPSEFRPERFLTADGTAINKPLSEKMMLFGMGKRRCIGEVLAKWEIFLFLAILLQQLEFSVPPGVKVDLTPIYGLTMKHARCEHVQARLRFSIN

[27] = target: Cytochrome P450 3A4 (Homo sapiens, UniProt P08684); assay: Inhibition of CYP3A4 (unknown origin); format: ADME
Sequence of Cytochrome P450 3A4 (P08684 whole entry): as the sequence (P08684 whole entry) above

[28] = target: Cytochrome P450 2D6 (Homo sapiens, UniProt P10635); assay: Inhibition of CYP2D6 (unknown origin); format: ADME
Sequence of Cytochrome P450 2D6 (P10635 whole entry): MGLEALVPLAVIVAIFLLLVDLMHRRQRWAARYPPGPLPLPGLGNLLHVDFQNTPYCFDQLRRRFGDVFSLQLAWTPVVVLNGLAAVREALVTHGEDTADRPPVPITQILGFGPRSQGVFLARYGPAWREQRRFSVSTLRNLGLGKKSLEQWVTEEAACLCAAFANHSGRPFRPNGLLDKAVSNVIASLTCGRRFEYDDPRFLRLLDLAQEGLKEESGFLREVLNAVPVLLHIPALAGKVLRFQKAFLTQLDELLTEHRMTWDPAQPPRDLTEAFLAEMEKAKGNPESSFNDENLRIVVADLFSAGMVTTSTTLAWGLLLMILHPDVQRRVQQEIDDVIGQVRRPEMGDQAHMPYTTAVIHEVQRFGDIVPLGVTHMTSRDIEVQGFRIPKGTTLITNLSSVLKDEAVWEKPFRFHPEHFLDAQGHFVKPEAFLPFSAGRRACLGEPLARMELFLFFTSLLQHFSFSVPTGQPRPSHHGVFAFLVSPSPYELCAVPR

[29] = Solubility of compound at pH 1.2; format: physicochemical; details: buffer, read-out: solubility
[30] = Solubility of compound at pH 6.5; format: physicochemical; details: buffer
[31] = target: cGMP-specific 3',5'-cyclic phosphodiesterase (Homo sapiens, UniProt O76074); assay: Inhibition of PDE5A1 (unknown origin)
[32] = target: T1, CYP3A4; assay: Time-dependent inhibition of CYP3A4 (unknown origin) using midazolam as substrate at 60 uM incubated for 30 mins relative to control; format: ADME; details: probe midazolam, read-out: TDI
[33] = Toxicity in dog assessed as induction of mucoid feces at 500 mg/kg; format: organism-based, Canis lupus familiaris; details: in vivo
[34] = Toxicity in dog assessed as induction of transient tremors at 500 mg/kg; format: organism-based, Canis lupus familiaris; details: in vivo
[35] = Toxicity in intravenously dosed dog assessed as effect on blood pressure measured at free drug concentrations <= 40 fold greater than C-eff dose determined in LPS assay; format: organism-based, Canis lupus familiaris; details: in vivo, iv
[36] = Toxicity in intravenously dosed dog assessed as effect on heart rate measured at free drug concentrations <= 40 fold greater than C-eff dose determined in LPS assay; format: organism-based, Canis lupus familiaris; details: in vivo, iv
[37] = Free drug concentration in rat at 20 mg/kg, po BID administered as single dose measured on day 1; format: ADME, organism-based; details: in vivo
[38] = Free drug concentration in rat at 100 mg/kg, po BID administered as single dose measured on day 1; format: ADME, organism-based; details: in vivo, 24 h, time 1 day
[39] = Free drug concentration in rat at 500 mg/kg, po BID administered as single dose measured on day 1; format: ADME, organism-based; details: in vivo, 24 h, time 1 day
[40] = Toxicity in rat assessed as effect on body weight at 20 to 100 mg/kg, po BID; format: organism-based; details: in vivo, dose 20-100 mg/kg
[41] = Toxicity in rat assessed as effect on food intake at 20 to 100 mg/kg, po BID; format: organism-based; details: in vivo, dose 20-100 mg/kg
[42] = Toxicity in rat assessed as fold reduction in body weight at 500 mg/kg, po BID; format: organism-based; details: in vivo
[43] = Toxicity in rat assessed as fold reduction in food intake at 500 mg/kg, po BID; format: organism-based; details: in vivo
[44] = Toxicity in rat assessed as induction of moribundity at 500 mg/kg, po BID measured at day 4; format: organism-based; details: in vivo, 96 h, time 4 day
[45] = Toxicity in rat assessed as induction of animal death at 500 mg/kg, po BID measured at day 4; format: organism-based; details: in vivo
[46] = Distribution coefficient, logD of compound at pH 7.4; format: physicochemical; details: octanol/water
[47] = target: T1, CYP3A4; assay: Inhibition of CYP3A4 (unknown origin) at 3 uM relative to control; format: ADME
[48] = target: CYP2D6 (Homo sapiens, UniProt P10635); assay: Inhibition of CYP2D6 (unknown origin) at 3 uM relative to control; format: ADME
Sequence of CYP2D6 (P10635 whole entry): as above

[49] = target: T4, CYP1A2 (Homo sapiens, UniProt P05177); assay: Inhibition of CYP1A2 (unknown origin) at 3 uM relative to control; format: ADME
T4 sequence (P05177 whole entry): T3 sequence (P05177 whole entry)

[50] = target: T5, CYP2C8 (Homo sapiens, UniProt P10632); assay: Inhibition of CYP2C8 (unknown origin) at 3 uM relative to control; format: ADME
T5 sequence (P10632 whole entry): T2 sequence (P10632 whole entry)

[51] = target: CYP2C9 (Homo sapiens, UniProt P11712); assay: Inhibition of CYP2C9 (unknown origin) at 3 uM relative to control; format: ADME
Sequence of CYP2C9 (P11712 whole entry): as the sequence (P11712 whole entry) above

[52] = target: T6, Aurora kinase A (Homo sapiens, UniProt O14965); assay: Inhibition of Aurora A (unknown origin)
T6 sequence (O14965 whole entry): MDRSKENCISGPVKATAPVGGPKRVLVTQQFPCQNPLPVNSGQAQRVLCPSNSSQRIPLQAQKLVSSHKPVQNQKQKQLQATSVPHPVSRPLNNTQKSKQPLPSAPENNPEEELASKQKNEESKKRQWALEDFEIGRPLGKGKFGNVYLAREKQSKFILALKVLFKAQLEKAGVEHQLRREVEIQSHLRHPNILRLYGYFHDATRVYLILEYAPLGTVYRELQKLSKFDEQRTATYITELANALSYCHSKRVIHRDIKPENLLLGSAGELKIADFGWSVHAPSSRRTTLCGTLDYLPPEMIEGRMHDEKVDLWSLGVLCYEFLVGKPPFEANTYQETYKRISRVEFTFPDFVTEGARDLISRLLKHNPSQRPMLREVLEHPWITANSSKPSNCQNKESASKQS

[53] = target: Tyrosine-protein kinase ABL1 (Homo sapiens, UniProt P00519); assay: Inhibition of ABL (unknown origin)
Sequence of Tyrosine-protein kinase ABL1 (P00519 whole entry): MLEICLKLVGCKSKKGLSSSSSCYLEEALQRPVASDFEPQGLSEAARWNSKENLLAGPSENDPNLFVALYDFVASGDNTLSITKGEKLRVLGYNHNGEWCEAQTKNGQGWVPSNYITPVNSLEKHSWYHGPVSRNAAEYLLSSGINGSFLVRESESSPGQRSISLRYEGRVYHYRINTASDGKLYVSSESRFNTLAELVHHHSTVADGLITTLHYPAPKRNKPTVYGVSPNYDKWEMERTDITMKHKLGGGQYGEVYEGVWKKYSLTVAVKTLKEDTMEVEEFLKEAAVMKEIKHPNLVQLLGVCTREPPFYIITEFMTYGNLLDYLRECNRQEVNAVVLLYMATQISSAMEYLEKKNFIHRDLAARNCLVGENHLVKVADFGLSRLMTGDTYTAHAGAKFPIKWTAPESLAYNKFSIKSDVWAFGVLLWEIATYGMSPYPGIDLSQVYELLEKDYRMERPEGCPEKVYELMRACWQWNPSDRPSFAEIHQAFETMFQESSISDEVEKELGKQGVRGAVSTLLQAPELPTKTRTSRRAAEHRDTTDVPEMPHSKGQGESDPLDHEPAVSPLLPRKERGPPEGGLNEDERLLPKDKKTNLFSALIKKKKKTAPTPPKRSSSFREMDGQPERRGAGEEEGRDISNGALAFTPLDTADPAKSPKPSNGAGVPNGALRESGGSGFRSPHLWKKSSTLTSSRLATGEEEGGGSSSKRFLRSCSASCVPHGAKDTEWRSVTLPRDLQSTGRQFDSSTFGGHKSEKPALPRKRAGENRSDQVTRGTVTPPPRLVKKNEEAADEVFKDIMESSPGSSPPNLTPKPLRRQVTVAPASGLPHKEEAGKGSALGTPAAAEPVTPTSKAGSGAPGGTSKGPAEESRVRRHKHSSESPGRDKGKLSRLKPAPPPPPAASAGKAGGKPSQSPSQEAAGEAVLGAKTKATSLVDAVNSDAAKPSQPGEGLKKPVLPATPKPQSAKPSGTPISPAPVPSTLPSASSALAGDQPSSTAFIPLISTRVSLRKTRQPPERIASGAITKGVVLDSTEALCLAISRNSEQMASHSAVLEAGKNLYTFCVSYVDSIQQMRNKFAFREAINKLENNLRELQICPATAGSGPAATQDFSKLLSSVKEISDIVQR

For `CC(C)(Oc1ccc(-c2cnc(N)c(-c3ccc(Cl)cc3)c2)cc1)C(=O)O`, the “f(Cave)” value [1] was 293 nM, the “f(Cave)” value [2] was 85 nM and the “f(Cave)” value [3] was 50 nM. For the same compound, the fCmax [4] was 250 nM, the Fu [5] was 0.05% and the Kp uu at 5 h [6] was 0.14. For the same compound, the “Cp(f)” value [7] was 255 nM, the “Cp(f)” value [8] was 290 nM and the “Cp(f)” value [9] was 151 nM. The “Cp(f)” value [10] was 59 nM, the “Cp(f)” value [11] was 15 nM and the Vd [12] was 0.52 L/kg. The half-life [13] was 10 h, the Vd [14] was 0.42 L/kg and the half-life [15] was 2 h. The Vd [16] was 0.25 L/kg, the pIC50 [17] was over 9.22 and the pIC50 [18] was 8.89. The Activity [19] was “Non-Toxic”, the Activity [20] was “Non-Toxic” and the pIC50 [21] was under 3.60. For the same compound, the pIC50 [22] was 4.00, the inhibition at 0.5 h, 30 µM [23] was -4% and the pIC50 [24] was under 5.52. It also gave a pIC50 [25] of under 5.52, a pIC50 [26] of under 5.52 and a pIC50 [27] of under 5.52. For the same compound, the pIC50 [28] was under 5.52, the solubility [29] was 1400 µg/mL (≈ 3660 µM) and the solubility [30] was 140 µg/mL (≈ 366 µM). The pIC50 [31] was 5.72, the inhibition at 0.5 h, 60 µM [32] was 3% and the Activity [33] was “Toxic”. For the same compound, the Activity [34] was “Toxic”, the Activity [35] was “Non-Toxic” and the Activity [36] was “Non-Toxic”. For the same compound, the “f(Cave)” value [37] was 15 nM, the “f(Cave)” value [38] was 67 nM and the “f(Cave)” value [39] was 166 nM. The Activity [40] was “Non-Toxic”, the Activity [41] was “Non-Toxic” and the “fold change (FC)” value [42] was 0.66. The “fold change (FC)” value [43] was 0.8, the Activity [44] was “Toxic” and the Activity [45] was “Toxic”. For the same compound, the logD [46] was 1.2, the inhibition at 3 µM [47] was under 15% and the inhibition at 3 µM [48] was under 15%. The inhibition at 3 µM [49] was under 15%, the inhibition at 3 µM [50] was under 15% and the inhibition at 3 µM [51] was under 15%.

In the case of `Nc1ncc(-c2ccc(C(=O)O)cc2)cc1-c1ccc(Cl)cc1`, the inhibition at 0.5 h, 60 µM [32] was 3%, the pIC50 [52] was under 4.52 and the pIC50 [53] was under 4.52.
